Source: US20230126411A1, “DEUTERIUM MAGNETIC RESONANCE IMAGING” (University of Florida Research Foundation, Inc., priority 2020, published 2023)

Key:
[1] = test system: HUH-7 hepatocellular carcinoma cells; test: [2H7]glucose consumption, lactate isotopomer and HDO production in cell media by 1H/2H-NMR; format: cell-based; conditions: for rate of production of lactate isotopomer: efflux into medium, linear regression over incubation time; for concentration of consumed [2H7]glucose / produced lactate isotopomers and HDO in cell media: 5.5 mM [2H7]glucose; for number of μmol of 2H: 2H mass balance
Protocol: (§1) HUH-7 or AML12 cell lines were cultured in a complete growth medium made up of Dulbecco's Modified Eagle Medium (DMEM) with 10% v/v FBS, 10,000 units/mL penicillin, 10,000 μg/mL streptomycin, 25 μg/mL amphotericin B and 5.5 mM [^2H7]glucose. Cell lines were maintained at 37° C. in a 5% CO2 in air atmosphere in an air-jacketed incubator (Heracell Vios 160i, Thermo Scientific, Waltham, Mass.). Growth media was replaced every 3 days, and subcultured 1:5 at 80% confluence. 25 cm^2 cell culture plates, containing 15 million HUH-7 or AML12 cells at 70-80% confluence, were washed once with warm PBS and incubated with 4 mL each of DMEM with deuterated tracer for 5h, withdrawing 100 μL aliquots at 20 min, 1h, 2h, and 5h.
(§2) No extraction was performed on the cell media samples. Pyrazine and pyrazine-D4 were mixed to achieve 5 mM concentration of each of the standards in each cell media samples of HUH-7 and AML12 cells. Pyrazine and pyrazine-D4 served as an internal standard to quantify the lactate isotopomers from ^1H-NMR data and HDO as well as residual [^2H7]glucose from ^2H-NMR data respectively. 40 μL of cell medium was transferred into 1.7 mm NMR tubes for NMR analysis. ^1H-NMR Spectroscopy
(§3) All NMR spectra were recorded on a 600.23 MHz NMR, equipped with a 1.7 mm TCI CryoProbe and Avance Neo Console (Bruker Biospin). All NMR experiments were set up in the lock off followed by sweep off mode. ^2H-decoupling off and on ^1H-NMR spectra were acquired with a sequence that alternated decoupling with each scan. Relaxation delay (d1) of 1.5s and acquisition time (AQ) of 2s (3.5s of recycling time, Tr) and a 90° pulse of 10.50 μs was used for acquisition of each of the spectra. The WET method containing selective pulses was applied on the strong water resonance (M o, H. & Raftery, D. J. Biomol. NMR 2008 41:105-111). Waltz16 ^2H-decoupling sequence consists of 90° pulse of 250 μs with decoupling power of 1.72watts, producing B, of 1 kHz during the acquisition period. 13,157 complex data points were acquired with the spectral width of 11 ppm. 128 scans were used to acquire each spectrum. 4 dummy scans were also used for equilibration of the spin states prior to acquisition. A modified T1 inversion recovery pulse sequence with ^2H-decoupling on during the acquisition was used to measure the T1 of the lactate isotopomers and pyrazine standard. Relaxation delay (d1) of 50s and inversion recovery delays (T) of 0.001, 0.6, 0.9, 1.5, 2.0, 3.0, 6.0, 9.0, 14.0, 20.0, 30.0 and 40.0s were used to determine the T1 of lactate isotopomers.
(§4) The deuterium lock channel was used to acquire the ^1H-decoupled ^2H-NMR spectrum at 92.13 MHz resonant frequency. Relaxation delay (d1) of 2s and acquisition time (AQ) of 1s (3s of recycling time, Tr) with a 90° pulse was used to acquire each of the ^2H-NMR spectra. 1086 complex data points were digitized with the spectral width of 11 ppm using 1024 scans for each of the 5 FIDs (5120 scans) for each of the samples. T1 inversion recovery pulse sequence was used to calculate the T1 relaxation times of HDO and pyrazine-D4 standard. Relaxation delay (d1) of 5s, acquisition time (AQ) of 1s and inversion recovery delays (T) of 0.001, 0.1, 0.4, 0.8, 1.6, and 3.2s were used to acquire an array of FIDs to calculate the T1 of HDO and pyrazine-D4. All NMR experiments were carried out at the room temperature (25° C.). ^1H-NMR Data Processing and Quantification of Lactate Isotopomers
(§5) For processing of the ^1H-NMR spectrum, the spectra were zero-filled to 32,768 points with an exponential window function of 0.3 Hz before the Fourier Transform (FT). Manual phase and automatic spline baseline correction were performed on each of the spectra. ^2H-decoupled ^1H-NMR spectra of each time point were used for the extraction of the areas of lactate isotopomers. The MestReNova line fitting tool was used to extract the peak areas of the slightly overlapped signals for quantification of the lactate isotopomers. […]

[2] = T1 inversion recovery NMR of lactate isotopomers, HDO and standards in cell media; format: physicochemical; conditions: 25° C., cell medium; for proton T1 relaxation time: 1H-NMR 600.23 MHz, 2H-decoupling on; for deuterium T1 relaxation time: 2H-NMR 92.13 MHz
Protocol: as §3, §4
Once the lactate isotopomers were identified, it would be expected to observe differential changes in T1 due to a loss of ^1H dipolar relaxation. T1 inversion recovery experiments were performed in the ^2H-decoupling on mode to calculate the T1 relaxation time of the pyrazine and lactate isotopomers. […] A and B marks on the uppermost spectrum represent the pyrazine standard and methyl signals of the lactate isotopomers respectively. Integral areas of each of the lactate isotopomers and pyrazine standard were extracted to calculate the T1 relaxation times. Data was fit to the standard T1 equation, Mz(t)=M0(1-2*^T/T1), to extract the T1s. […] T1 relaxation time of the HDO and pyrazine-D4 standard were calculated using the inversion recovery ^2H-NMR data (FIG. 10) and found to be 0.49s and 0.45s respectively.

AML12 cells = test: [2H7]glucose consumption, lactate isotopomer and HDO production in cell media by 1H/2H-NMR; format: cell-based; conditions: for concentration of consumed [2H7]glucose / produced lactate isotopomers and HDO in cell media: 5.5 mM [2H7]glucose; for number of μmol of 2H: 2H mass balance
Protocol: as §1, §2, §3, §4, §5

rat brain = test: Deuterium MR spectroscopy of rat brain and plasma 2H NMR after tail vein infusion of [2H7]glucose
Source text: All experimental procedures were approved by the University of Florida Institutional Animal Care and Use Committee. Female Sprague Dawley rats (body weight: ˜220 g) were purchased from Jackson Laboratories and acclimatized in the University's animal care facilities. All rats were in the fed state. The rat was anesthetized with 2% isoflurane in a mixture of O2 and N2 gases. The tail vein was catheterized using a 23-gauge needle for the infusion of [^2H7]glucose tracer. The body temperature of the rat was maintained at 37° C. using a heated circulating water pad. The respiratory rate was monitored during the entire period of the experiment. After shimming the magnet, three baseline ^2H spectra were acquired. Subsequently, a 2 minute tail vain infusion of [^2H7]glucose (1.95 g/kg body weight and dissolved in 2.3 mL saline) was administered. Blood was drawn after the end of spectroscopy and imaging experiments via saphenous vein and blood plasma was separated by centrifugation of the blood at 4° C. for 10 minutes. Circulating blood glucose was assessed by a blood draw and glucometer (Evancare, Medline Industries, Northfield, IL) prior to infusion and 3 hours after the glucose injection.
Animal experiments were performed on an 11.1 T Magnex magnet (Magnex Scientific Ltd.) interfaced to a BrukerAvance Ill HD console running on ParaVision 6.0.1 (Bruker Instruments, Billerica, Mass.). The MRI system was equipped with RRI BFG-240/120-S6 gradient coil with the bore size of 120 mm and capable of producing 100 mT/m with 200 μs rise time. A shim map was generated for localized shimming on rat brain using an 85 mm home-built, actively-decoupled, linear volume ^1H transmit-receive coil. The coil was tuned to the ^1H NMR frequency at 470 MHz. A home-built 14 mm diameter, circular surface coil tuned to 72.26 MHz was used to acquire ^2H spectra and images.
The ^2H coil was placed over the rat head and a 3D printed phantom containing approximately 200 μl of natural abundance water was placed on the top of the coil to confirm positioning. The ^2H RF pulse and flip angle were optimized to maximize the ^2H signals from the rat brain. A partial signal contribution from the natural abundance ^2H of the water phantom was unavoidable but was accounted for by subtraction of the signal areas from runs that followed the glucose injection. […] Spectra were acquired with a 1 kHz width and 256 data points for each free induction decay (FID), a repetition time of 300 ms, and a flip angle of 60° with 256 averages. The total acquisition time for each spectrum was 1.28 minutes. A total of 30 spectra were acquired for a 38-minute time period. Two additional ^2H NMR spectra from the rat brain were acquired at 2 hours and 2.5 hours following [^2H7]glucose infusion. Pyrazine-D4 (2.5 mM, internal standard) was added in each plasma sample to calculate the HDO concentration in plasma. ^2H NMR spectra were collected on Bruker 14 T NMR magnet system equipped with a 1.7 mm TCl CryoProbe and Avance Neo console (Bruker BioSpin). ^2H NMR spectra of plasma samples were acquired at 92.13 MHz resonant frequency with an acquisition time of 1.0 s, relaxation delay of 2 s, and 3072 scans.
^2H NMR data analysis was performed using MestReNova v14.0.1-23284 (Mestrelab Research S. L., Santiago, Spain). For processing of the ^2H NMR, each spectrum was Fourier transformed with an exponential window function of 2.0 Hz, zero-filling of 512 data points and automatic phase correction was also applied. Peak areas were extracted for HDO, [^2H7]glucose including the anomeric signal, deuterated glx (glutamate/glutamine) and lactate from the ^2H NMR spectra of the rat brain. 2D ^1H and ^2H images were processed in the ImageJ software (NIH, Bethesda, Md.).

Row | proton T1 relaxation time [2] | Molecule | rate of production of lactate isotopomer [1] | concentration of consumed [2H7]glucose / produced lactate isotopomers and HDO in cell media (AML12 cells; 5 hour time point) | number of μmol of 2H (AML12 cells; 5 hour time point) | concentration of consumed [2H7]glucose / produced lactate isotopomers and HDO in cell media ([1]; 5 hour time point) | number of μmol of 2H ([1]; 5 hour time point) | further results
1 | 1.85 s | CC(O)C(=O)O (stereo not drawn) [lactate-CH3] | 0.17 micromol/10^6 cells/min | – | – | – | – | –
2 | 6.45 s | c1cnccn1 [pyrazine, Pyrazine, reference compound] | – | – | – | – | – | –

Second part, the molecule before the results:

Row | Molecule | proton T1 relaxation time [2] | rate of production of lactate isotopomer [1] | concentration of consumed [2H7]glucose / produced lactate isotopomers and HDO in cell media (AML12 cells; 5 hour time point) | number of μmol of 2H (AML12 cells; 5 hour time point) | concentration of consumed [2H7]glucose / produced lactate isotopomers and HDO in cell media ([1]; 5 hour time point) | number of μmol of 2H ([1]; 5 hour time point) | further results
3 | [2H]O [HDO, hydrogen-deuterium oxide] | – | – | 2003.12 µmol/L | 2003.12 µmol | 18240.0 µmol/L | 18240.0 µmol | final body water HDO enrichment (rat brain; rat blood plasma at end of experiment, n=4): 86.9 ± 5.16 mM; final estimated HDO concentration in brain (rat brain; rat brain, longer time points (2.5 hrs) post-[2H7]glucose infusion, N=3): approximately 48±10 mM; final HDO signal relative to natural abundance signal (rat brain; rat brain, longer time points post-infusion): approximately 3.5 ×; time range of pseudo-steady state of HDO (and HDO plus lactate) to glx ratios (rat brain; rat brain, post-[2H7]glucose infusion): 10 to 24 min; body water enrichment of HDO relative to brain concentration (rat brain; rat, final time point): approximately 1.8 ×; deuterium T1 relaxation time [2]: 0.49 s
4 | [2H]CC(O)C(=O)O (stereo not drawn) [Lactate-CH2D] | 2.49 s | 0.35 micromol/10^6 cells/min | 229.26 µmol/L | 229.26 µmol | 1520.0 µmol/L | 1520.0 µmol | –
5 | [2H]C([2H])C(O)C(=O)O (stereo not drawn) [Lactate-CHD2] | 4.21 s | 0.57 micromol/10^6 cells/min | 353.07 µmol/L | 706.14 µmol | 2442.47 µmol/L | 4884.9 µmol | concentration of lactate-CHD2 relative to the -CH2D isotopomer ([1]; 5 hour time point): 1.6 fold
6 | [1,2,3,4,5,6,6-^2H7]-D-glucose [[^2H7]glucose, reference compound] | – | – | 586.52 µmol/L | 4105.60 µmol | 3650.0 µmol/L | 25550.0 µmol | Number of μmol of 2H in 2H-lactate & HDO (AML12 cells; 5 hour time point, sum): 2938.52 µmol; [2H7]glucose uptake and HDO and 2H-lactate production compared to HUH-7 (AML12 cells; qualitative): much lower; 2H atoms of [2H7]glucose incorporated into 2H-lactate and HDO ([1]; 2H mass balance at 5 hour time point): Approximately 96%; Number of μmol of 2H in 2H-lactate & HDO ([1]; 5 hour time point, sum): 24644.9 µmol; cellular [2H7]glucose uptake and HDO production rate compared to AML12 cells ([1]; qualitative, stacked 2H-NMR spectra): very high; fate of the glucose bolus in brain (rat brain; rat, in vivo): almost completely metabolized; time of peak delivery of [2H7]glucose into the brain (rat brain; rat, in vivo): approximately 10 minutes post infusion; final blood glucose concentration (rat brain; rat, 3 hours after injection of 1.95 g/kg [2H7]glucose, n=4): 7.1 ± 1.8 mM
7 | [2H]c1nc([2H])c([2H])nc1[2H] [pyrazine-D4, Pyrazine-D4, reference compound] | – | – | – | – | – | – | deuterium T1 relaxation time [2]: 0.45 s
